# According to patent publication US12257287B2, “Glucagon-derived peptide and use thereof” (Tianjin Institute of Pharmaceutical Research Co., Ltd., priority 2018, dated 2025):
# Numbered stars: 1 amine (or outer) side, 2 acyl side, 3 side chain; on linkers, the order of the positions; unused ones are H or OH. Square brackets hold non-standard residues; d marks the D form. Side chains are listed from the residue outwards. Peptide text beside a SMILES is read from it. * marks the point of attachment. C20 diacid = O=C(O)CCCCCCCCCCCCCCCCCCC(=O)*; C18 diacid = O=C(O)CCCCCCCCCCCCCCCCC(=O)*; γGlu = O=C(O)[C@H](CCC(=O)[*:2])N[*:1]; AEEA = NCCOCCOCC(=O)O; Aib = CC(C)(N)C(=O)O
# What was measured:
# [1] = Accelerated chemical stability in injection solvent system (HPLC-UV); format: physicochemical; settings: 14 days, phosphate buffer pH 7.3 with Tween 80 and phenol, main peak area vs day 0
# In short: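 Compound dissolved in 10 mM pH 8.5 sodium hydrogen phosphate buffer, adjusted to pH 7.3, with Tween 80 and phenol added. Solutions stored 14 days at 10 °C and 37 °C; HPLC-UV main-peak area by normalisation compared against day 0.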
# [2] = Glucose tolerance test in glucose-loaded DIO mice; format: in vivo; settings: DIO mice, conclusions on Tables 4 and 6
# In short: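 DIO mice fasted 16 h received compound subcutaneously; 1 h later, glucose 1 g/kg was given intraperitoneally. Blood glucose measured at 0.5, 1 and 1.5 h; AUC compared with model control group to give blood glucose inhibition rate (%).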
# [3] = molecular target: T1, human GLP-1 receptor (Homo sapiens, UniProt P43220); test: GLP-1 receptor mediated cAMP production in vitro; format: cell-based; settings: cells transfected with human GLP-1 receptor, 20 min at 37° C., read-out: GLP-1R (nM EC50)
# T1 construct: expressed in transfected cells; host or cells: Chinese guinea pig lung cells [sic]
# From the text: (§1) The medium was removed, the cells were lysed, and cAMP values were detected referring to the detection method described for the assay kit.
# [4] = molecular target: T2, GC receptor (Homo sapiens, UniProt P47871); test: GC receptor mediated cAMP production in vitro (HEK293 cells transfected with GC receptor); format: cell-based; settings: 20 min at 37° C., read-out: GCGR (nM EC50)
# T2 construct: expressed in transfected cells; host or cells: HEK293 cells
# From the text: as §1
# [5] = Short-term administration: food intake and body weight in DIO mice; format: in vivo; settings: 30 nmol/kg once every 24 h, twice, − decrease; for Rate of change in food intake (%): at 48 hours vs day before administration; for Body weight change: at 48 hours
# In short: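 DIO mice (mean body weight 52.5 g), 5 per group, dosed at 30 nmol/kg every 24 h for two doses, in 10 mM PBS pH 7.4; controls received solvent. Food intake and body weight at 48 h expressed as change rate versus the day before dosing.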
# [6] = Effect on body weight of DIO mice after 14 days' administration; format: in vivo, C57BL/6J mice; settings: DIO mice, 14 days, conclusions on Tables 3 and 5
# In short: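 C57BL/6J mice on H10060 high-fat diet for 34 weeks (DIO; 45.0–52.0 g), 5 per group, dosed subcutaneously once daily for 14 days; controls received saline. Body weight change (%) = (initial − last-day weight)/initial weight; positive values mean loss.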
# [7] = physchem; format: physicochemical
# [8] = pH 7.5, Solubility, pH 7.5, 10 mM phosphate buffer
# [9] = pH 7.5, Solubility, pH 7.5, 20 mM phosphate buffer
# [10] = pH 8, Solubility, pH 8.0, 10 mM phosphate buffer
# [11] = pH 8, Solubility, pH 8.0, 20 mM phosphate buffer
# 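Throughout, for Solubility: compound added at 2 mg per mL of phosphate buffer, with the dissolved amount determined in the supernatant.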
# T1 sequence (P43220 24-463): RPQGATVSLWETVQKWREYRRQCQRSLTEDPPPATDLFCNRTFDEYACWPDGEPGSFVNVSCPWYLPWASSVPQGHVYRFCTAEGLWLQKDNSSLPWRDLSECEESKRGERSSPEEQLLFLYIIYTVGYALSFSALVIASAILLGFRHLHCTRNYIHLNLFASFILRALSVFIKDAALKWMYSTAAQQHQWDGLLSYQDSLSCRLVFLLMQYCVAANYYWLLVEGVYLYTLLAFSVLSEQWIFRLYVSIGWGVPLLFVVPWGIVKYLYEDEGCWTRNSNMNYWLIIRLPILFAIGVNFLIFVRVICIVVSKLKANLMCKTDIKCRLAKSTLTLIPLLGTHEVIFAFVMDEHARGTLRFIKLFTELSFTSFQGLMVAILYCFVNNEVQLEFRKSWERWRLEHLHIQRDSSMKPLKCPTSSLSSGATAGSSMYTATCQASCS
# T2 sequence (P47871 26-477): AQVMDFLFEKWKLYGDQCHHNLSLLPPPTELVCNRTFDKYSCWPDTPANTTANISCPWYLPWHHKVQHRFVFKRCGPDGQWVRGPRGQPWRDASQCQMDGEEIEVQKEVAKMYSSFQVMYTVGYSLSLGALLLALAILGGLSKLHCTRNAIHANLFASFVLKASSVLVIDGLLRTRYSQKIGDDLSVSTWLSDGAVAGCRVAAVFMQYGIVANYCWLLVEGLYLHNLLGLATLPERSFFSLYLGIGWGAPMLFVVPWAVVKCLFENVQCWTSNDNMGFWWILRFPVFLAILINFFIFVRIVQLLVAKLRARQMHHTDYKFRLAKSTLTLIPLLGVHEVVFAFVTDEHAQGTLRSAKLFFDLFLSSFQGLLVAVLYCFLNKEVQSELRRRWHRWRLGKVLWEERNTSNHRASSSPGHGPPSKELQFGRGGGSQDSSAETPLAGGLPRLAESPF
Change in purity % (10° C.) [1] [%],Change in purity % (37° C.) [1] [%],EC50 [3] [nM],EC50 [4] [nM],"solubility [7, 8] [µg/mL]","solubility [7, 9] [µg/mL]","solubility [7, 10] [µg/mL]","solubility [7, 11] [µg/mL]",SMILES,glucose tolerance / blood glucose lowering (in words) [2],Rate of change in food intake (%) [5] [%],Body weight change [5] [g],body weight reduction (in words) [6]
−2.7,−5.1,0.051,0.058,1490,1420,> 2000,1880,CC[C@H](C)[C@H](NC(=O)[C@H](Cc1ccccc1)NC(=O)[C@H](CCC(=O)O)NC(=O)[C@H](CCCCNC(=O)COCCOCCNC(=O)COCCOCCNC(=O)CC[C@H](NC(=O)CCCCCCCCCCCCCCCCC(=O)O)C(=O)O)NC(=O)[C@H](C)NC(=O)[C@H](CCCCN)NC(=O)[C@H](CCCNC(=N)N)NC(=O)[C@H](CCC(=O)O)NC(=O)[C@H](CC(=O)O)NC(=O)[C@H](CC(C)C)NC(=O)[C@H](Cc1ccc(O)cc1)NC(=O)[C@H](CCCCN)NC(=O)[C@H](CO)NC(=O)[C@H](Cc1ccc(O)cc1)NC(=O)[C@H](CC(=O)O)NC(=O)[C@H](CO)NC(=O)[C@@H](NC(=O)[C@H](Cc1ccccc1)NC(=O)[C@@H](NC(=O)CNC(=O)[C@H](CCC(N)=O)NC(=O)C(C)(C)NC(=O)[C@@H](N)Cc1c[nH]cn1)[C@@H](C)O)[C@@H](C)O)C(=O)N[C@@H](CCC(=O)O)C(=O)N[C@@H](Cc1c[nH]c2ccccc12)C(=O)N[C@@H](CC(C)C)C(=O)N[C@@H](CCC(=O)O)C(=O)NCC(=O)NCC(=O)N1CCC[C@H]1C(=O)N[C@@H](CO)C(=O)N[C@@H](CO)C(=O)NCC(N)=O [Compound 66] (H-H[Aib]QGTFTSDYSKYLDERKAK([AEEA-AEEA-γGlu-C18 diacid])EFIEWLEGGPSSG-NH2; N-terminus assumed),significantly improved glucose tolerance,−56,-1.7,significantly reduced body weight
−0.6,−3.1,0.044,0.036,1840,1170,> 2000,> 2000,CC[C@H](C)[C@H](NC(=O)[C@H](Cc1ccccc1)NC(=O)[C@H](CCC(=O)O)NC(=O)[C@H](CCCCN)NC(=O)[C@H](C)NC(=O)[C@H](C)NC(=O)[C@H](CCCNC(=N)N)NC(=O)[C@H](CCC(=O)O)NC(=O)[C@H](CCC(=O)O)NC(=O)[C@H](CC(C)C)NC(=O)[C@H](Cc1ccc(O)cc1)NC(=O)[C@H](CCCCN)NC(=O)[C@H](CO)NC(=O)[C@H](CCCCNC(=O)COCCOCCNC(=O)COCCOCCNC(=O)CC[C@H](NC(=O)CCCCCCCCCCCCCCCCCCC(=O)O)C(=O)O)NC(=O)[C@H](CC(=O)O)NC(=O)[C@H](CO)NC(=O)[C@@H](NC(=O)[C@H](Cc1ccccc1)NC(=O)[C@@H](NC(=O)CNC(=O)[C@H](CCC(N)=O)NC(=O)C(C)(C)NC(=O)[C@@H](N)Cc1c[nH]cn1)[C@@H](C)O)[C@@H](C)O)C(=O)N[C@@H](C)C(=O)N[C@@H](Cc1c[nH]c2ccccc12)C(=O)N[C@@H](CC(C)C)C(=O)N[C@@H](CCC(=O)O)C(=O)N[C@@H](C)C(=O)NCC(=O)NCC(=O)N1CCC[C@H]1C(=O)N[C@@H](CO)C(=O)N[C@@H](CO)C(=O)NCC(N)=O [Compound 35] (H-H[Aib]QGTFTSDK([AEEA-AEEA-γGlu-C20 diacid])SKYLEERAAKEFIAWLEAGGPSSG-NH2; N-terminus assumed),significantly improved glucose tolerance,−59,-3.2,significantly reduced body weight
